Assay results: PMC3961306, “Comparison of the Cancer Gene Targeting and Biochemical Selectivities of All Targeted Kinase Inhibitors Approved for Clinical Use” (PLoS ONE, 2014)

Columns and labels:
Assay in all cases: Kinase profiling in a biochemical assay panel (mobility shift assays and ELISA), %-inhibition at 1 μM; selectivity entropy
[1] = biological target: panel of more than 300 wild-type and mutant kinases (313 kinase panel) (Homo sapiens, UniProt Q9BYP7)
[2] = biological target: T1, panel of more than 300 wild-type and mutant kinases (313 kinase panel) (Homo sapiens, UniProt P54753)
T1 sequence (P54753 34-998): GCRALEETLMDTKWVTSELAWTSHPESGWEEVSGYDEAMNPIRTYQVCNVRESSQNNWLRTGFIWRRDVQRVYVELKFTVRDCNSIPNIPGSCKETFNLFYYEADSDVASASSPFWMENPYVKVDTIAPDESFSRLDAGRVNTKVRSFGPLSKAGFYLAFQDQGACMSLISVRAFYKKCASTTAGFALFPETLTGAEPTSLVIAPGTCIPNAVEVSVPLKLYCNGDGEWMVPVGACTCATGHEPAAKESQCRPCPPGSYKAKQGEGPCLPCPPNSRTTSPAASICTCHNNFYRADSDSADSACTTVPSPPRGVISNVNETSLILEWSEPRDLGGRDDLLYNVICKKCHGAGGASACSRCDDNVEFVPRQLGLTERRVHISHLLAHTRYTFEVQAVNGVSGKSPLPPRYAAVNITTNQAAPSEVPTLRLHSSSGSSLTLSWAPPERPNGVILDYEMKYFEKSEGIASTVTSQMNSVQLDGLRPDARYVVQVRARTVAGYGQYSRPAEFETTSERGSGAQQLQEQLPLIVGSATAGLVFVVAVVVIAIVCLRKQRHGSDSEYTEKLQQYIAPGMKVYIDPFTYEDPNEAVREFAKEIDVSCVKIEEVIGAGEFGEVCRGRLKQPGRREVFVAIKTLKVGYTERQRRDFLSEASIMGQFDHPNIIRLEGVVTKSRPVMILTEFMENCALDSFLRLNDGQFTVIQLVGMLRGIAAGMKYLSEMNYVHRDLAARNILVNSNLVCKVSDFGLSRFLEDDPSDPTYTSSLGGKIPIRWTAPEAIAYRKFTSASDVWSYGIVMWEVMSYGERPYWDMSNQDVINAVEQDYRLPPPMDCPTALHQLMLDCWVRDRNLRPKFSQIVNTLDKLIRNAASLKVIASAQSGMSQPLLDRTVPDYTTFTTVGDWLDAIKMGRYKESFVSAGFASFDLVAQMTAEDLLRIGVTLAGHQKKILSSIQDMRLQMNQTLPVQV

[3] = biological target: panel of more than 300 wild-type and mutant kinases (313 kinase panel) (Homo sapiens, UniProt P31749)
[4] = biological target: T2, panel of more than 300 wild-type and mutant kinases (313 kinase panel) (Homo sapiens, UniProt Q8IW41)
T2 sequence (Q8IW41 1-473): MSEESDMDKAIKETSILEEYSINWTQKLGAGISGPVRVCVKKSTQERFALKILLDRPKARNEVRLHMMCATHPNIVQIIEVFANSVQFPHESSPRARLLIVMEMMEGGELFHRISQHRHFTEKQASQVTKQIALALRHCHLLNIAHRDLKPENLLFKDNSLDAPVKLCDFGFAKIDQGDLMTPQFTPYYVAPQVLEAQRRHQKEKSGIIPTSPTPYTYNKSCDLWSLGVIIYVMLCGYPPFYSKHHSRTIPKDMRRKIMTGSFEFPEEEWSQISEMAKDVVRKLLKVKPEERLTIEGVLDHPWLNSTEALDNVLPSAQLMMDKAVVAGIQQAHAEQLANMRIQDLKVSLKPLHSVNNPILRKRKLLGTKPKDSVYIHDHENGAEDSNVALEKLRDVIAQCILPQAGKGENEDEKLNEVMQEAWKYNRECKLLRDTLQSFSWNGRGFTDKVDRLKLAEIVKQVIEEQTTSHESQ

[5] = biological target: panel of more than 300 wild-type and mutant kinases (313 kinase panel) (Homo sapiens, UniProt P22455, V550E); conditions: kinase FGFR4(V550E); compound at 1 μM
[6] = biological target: T3, panel of more than 300 wild-type and mutant kinases (313 kinase panel) (Homo sapiens, UniProt Q12866)
T3 sequence (Q12866 21-999): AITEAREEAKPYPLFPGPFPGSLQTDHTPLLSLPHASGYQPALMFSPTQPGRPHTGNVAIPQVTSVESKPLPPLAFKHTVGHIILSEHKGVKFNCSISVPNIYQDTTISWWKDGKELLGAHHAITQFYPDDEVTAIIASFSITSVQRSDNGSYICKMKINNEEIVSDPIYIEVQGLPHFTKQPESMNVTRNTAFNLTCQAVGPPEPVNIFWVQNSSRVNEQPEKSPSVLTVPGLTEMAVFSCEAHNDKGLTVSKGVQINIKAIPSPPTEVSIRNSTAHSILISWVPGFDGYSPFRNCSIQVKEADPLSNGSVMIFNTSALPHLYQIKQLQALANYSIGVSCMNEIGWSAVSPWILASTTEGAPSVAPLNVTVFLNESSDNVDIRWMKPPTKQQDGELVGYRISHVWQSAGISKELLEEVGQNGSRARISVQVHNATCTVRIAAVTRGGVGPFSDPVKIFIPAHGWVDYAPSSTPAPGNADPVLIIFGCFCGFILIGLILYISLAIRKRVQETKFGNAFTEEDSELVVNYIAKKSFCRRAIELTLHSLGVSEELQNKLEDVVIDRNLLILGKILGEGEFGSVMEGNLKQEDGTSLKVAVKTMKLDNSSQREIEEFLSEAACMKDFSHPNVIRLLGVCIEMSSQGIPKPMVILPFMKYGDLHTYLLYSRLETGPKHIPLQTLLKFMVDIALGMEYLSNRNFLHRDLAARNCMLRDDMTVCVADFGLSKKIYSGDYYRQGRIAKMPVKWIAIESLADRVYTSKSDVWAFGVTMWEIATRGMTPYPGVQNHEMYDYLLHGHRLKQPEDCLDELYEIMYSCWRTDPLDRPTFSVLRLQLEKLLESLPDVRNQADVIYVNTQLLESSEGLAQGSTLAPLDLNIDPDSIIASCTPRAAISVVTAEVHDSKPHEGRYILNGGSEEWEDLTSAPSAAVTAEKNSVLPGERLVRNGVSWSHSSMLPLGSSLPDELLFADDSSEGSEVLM

[7] = kinase MAPKAPK5, compound at 1 μM

Sequence of panel of more than 300 wild-type and mutant kinases (313 kinase panel) (Homo sapiens, UniProt P22455, V550E) (P22455 22-802 V550E): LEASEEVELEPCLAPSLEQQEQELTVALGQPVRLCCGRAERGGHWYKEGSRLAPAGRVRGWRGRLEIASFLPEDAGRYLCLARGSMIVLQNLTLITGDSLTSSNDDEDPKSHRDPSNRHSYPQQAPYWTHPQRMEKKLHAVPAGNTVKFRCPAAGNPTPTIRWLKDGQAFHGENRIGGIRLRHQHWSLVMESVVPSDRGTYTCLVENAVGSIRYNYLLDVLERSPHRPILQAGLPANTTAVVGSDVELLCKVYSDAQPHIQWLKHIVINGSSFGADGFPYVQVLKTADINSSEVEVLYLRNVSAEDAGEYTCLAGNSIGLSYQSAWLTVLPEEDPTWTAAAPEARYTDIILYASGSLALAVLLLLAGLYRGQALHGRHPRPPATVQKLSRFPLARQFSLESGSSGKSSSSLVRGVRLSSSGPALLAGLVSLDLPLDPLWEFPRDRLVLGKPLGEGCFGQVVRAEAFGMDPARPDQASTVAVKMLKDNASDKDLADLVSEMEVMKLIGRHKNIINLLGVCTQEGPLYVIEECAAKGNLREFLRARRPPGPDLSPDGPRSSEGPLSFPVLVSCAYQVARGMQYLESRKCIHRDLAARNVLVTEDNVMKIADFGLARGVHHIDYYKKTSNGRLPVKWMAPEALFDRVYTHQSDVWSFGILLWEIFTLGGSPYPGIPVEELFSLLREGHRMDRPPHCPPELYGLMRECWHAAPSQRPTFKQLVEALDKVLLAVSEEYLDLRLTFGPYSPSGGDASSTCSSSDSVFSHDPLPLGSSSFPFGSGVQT
Sequence of panel of more than 300 wild-type and mutant kinases (313 kinase panel) (Homo sapiens, UniProt P31749) (P31749 whole entry, change not shown): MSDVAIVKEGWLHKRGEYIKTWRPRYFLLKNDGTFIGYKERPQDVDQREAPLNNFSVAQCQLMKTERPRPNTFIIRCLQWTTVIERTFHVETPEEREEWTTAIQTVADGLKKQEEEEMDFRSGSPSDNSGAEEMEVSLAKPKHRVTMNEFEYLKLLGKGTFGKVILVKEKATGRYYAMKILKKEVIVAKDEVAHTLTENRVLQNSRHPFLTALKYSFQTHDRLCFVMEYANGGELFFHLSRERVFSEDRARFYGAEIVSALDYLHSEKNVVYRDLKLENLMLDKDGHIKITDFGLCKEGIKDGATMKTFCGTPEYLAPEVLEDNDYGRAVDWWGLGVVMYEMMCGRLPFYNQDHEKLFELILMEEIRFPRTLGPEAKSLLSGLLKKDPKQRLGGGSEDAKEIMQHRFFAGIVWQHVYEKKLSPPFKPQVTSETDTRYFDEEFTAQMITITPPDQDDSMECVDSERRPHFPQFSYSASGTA
Sequence of panel of more than 300 wild-type and mutant kinases (313 kinase panel) (Homo sapiens, UniProt Q9BYP7) (Q9BYP7 whole entry, change not shown): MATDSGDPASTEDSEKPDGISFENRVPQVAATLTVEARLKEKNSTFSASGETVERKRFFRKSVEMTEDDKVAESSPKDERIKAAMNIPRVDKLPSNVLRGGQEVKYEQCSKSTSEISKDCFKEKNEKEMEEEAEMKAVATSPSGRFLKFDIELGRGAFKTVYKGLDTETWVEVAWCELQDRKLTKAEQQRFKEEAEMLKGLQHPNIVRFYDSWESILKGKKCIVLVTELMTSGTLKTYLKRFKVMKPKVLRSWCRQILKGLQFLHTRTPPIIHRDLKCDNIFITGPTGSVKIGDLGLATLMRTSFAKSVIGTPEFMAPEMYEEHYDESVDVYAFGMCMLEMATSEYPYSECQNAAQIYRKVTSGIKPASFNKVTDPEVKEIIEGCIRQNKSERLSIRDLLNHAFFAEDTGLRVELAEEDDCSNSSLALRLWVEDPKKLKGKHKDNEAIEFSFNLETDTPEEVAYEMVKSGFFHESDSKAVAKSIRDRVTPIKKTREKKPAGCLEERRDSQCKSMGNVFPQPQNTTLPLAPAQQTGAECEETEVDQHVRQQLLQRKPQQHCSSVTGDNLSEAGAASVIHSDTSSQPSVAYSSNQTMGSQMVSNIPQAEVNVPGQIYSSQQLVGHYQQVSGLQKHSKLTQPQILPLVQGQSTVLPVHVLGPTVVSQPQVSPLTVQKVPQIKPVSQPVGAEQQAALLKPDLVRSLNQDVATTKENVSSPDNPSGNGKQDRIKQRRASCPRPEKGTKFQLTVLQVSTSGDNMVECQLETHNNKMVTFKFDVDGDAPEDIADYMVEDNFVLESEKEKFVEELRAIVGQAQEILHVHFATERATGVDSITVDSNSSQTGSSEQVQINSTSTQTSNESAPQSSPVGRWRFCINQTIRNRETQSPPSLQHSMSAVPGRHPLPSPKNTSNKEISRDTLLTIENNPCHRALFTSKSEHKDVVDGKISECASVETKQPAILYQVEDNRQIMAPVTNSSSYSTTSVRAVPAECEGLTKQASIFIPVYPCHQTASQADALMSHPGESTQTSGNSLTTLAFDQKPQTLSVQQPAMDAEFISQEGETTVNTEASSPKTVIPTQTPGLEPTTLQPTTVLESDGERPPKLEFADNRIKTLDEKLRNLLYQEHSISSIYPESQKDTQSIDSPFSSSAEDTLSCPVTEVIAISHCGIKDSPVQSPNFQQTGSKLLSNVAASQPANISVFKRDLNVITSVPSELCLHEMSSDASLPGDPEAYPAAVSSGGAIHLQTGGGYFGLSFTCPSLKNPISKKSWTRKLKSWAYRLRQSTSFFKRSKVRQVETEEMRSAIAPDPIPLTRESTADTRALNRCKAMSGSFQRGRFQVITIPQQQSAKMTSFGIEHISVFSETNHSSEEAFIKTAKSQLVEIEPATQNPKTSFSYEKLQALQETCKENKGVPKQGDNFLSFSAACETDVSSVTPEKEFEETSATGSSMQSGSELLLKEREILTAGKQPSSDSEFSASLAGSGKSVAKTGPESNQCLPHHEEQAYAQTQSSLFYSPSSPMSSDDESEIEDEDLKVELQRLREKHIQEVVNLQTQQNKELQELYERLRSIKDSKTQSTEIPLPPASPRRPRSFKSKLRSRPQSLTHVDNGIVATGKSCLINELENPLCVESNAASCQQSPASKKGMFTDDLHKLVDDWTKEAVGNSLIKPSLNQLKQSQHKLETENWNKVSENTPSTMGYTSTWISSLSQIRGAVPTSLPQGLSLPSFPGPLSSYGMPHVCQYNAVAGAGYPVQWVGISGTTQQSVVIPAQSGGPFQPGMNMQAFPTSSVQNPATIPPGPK

SMILES | %-inhibition of WNK3 ([1]; kinase WNK3, compound at 1 μM) [%] | %-inhibition of EPHB3 ([2]; kinase EPHB3, compound at 1 μM) [%] | %-inhibition, AKT1 ([3]; kinase AKT1, 1 μM compound) [%] | %-inhibition of MAPKAPK5 [4, 7] [%] | %-inhibition of FGFR4(V550E) [5] [%] | %-inhibition of MER ([6]; kinase MER, compound at 1 μM) [%] | %-inhibition, AKT1 ([3]; 1 µM) [%] | %-inhibition of WNK3 ([1]; 1 µM) [%] | %-inhibition of EPHB3 ([2]; 1 µM) [%] | %-inhibition of MAPKAPK5 ([4]; 1 µM) [%] | %-inhibition of MER ([6]; 1 µM) [%]
C[C@@H](Oc1cc(-c2cnn(C3CCNCC3)c2)cnc1N)c1c(Cl)ccc(F)c1Cl [crizotinib] | -8 | 5 | -7 | -3.19 | -0.358 | – | – | – | – | – | –
CC(C)(C)c1nc(-c2cccc(NS(=O)(=O)c3c(F)cccc3F)c2F)c(-c2ccnc(N)n2)s1 [dabrafenib] | 1.34 | 3 | – | – | -5 | -0.876 | – | – | – | – | –
COc1cc2c(Nc3ccc(Br)cc3F)ncnc2cc1OCC1CCN(C)CC1 [vandetanib] | -7 | 8 | – | -0.931 | -0.358 | 45 | -4.52 | – | – | – | –
O=S(=O)(c1cccc2cnccc12)N1CCCNCC1 [fasudil] | 0.446 | -4 | 4.44 | -1.65 | -2.85 | -2.34 | – | – | – | – | –
C#Cc1cccc(Nc2ncnc3cc(OCCOC)c(OCCOC)cc23)c1 [erlotinib] | – | – | – | – | – | – | 12 | 0.315 | 5 | 1.53 | 10
COc1cc2nccc(Oc3ccc(NC(=O)C4(C(=O)Nc5ccc(F)cc5)CC4)cc3)c2cc1OC [cabozantinib] | 20 | 85 | -4.52 | -5 | -4 | 100 | – | – | – | – | –
Cc1ccc(C(=O)Nc2ccc(CN3CCN(C)CC3)c(C(F)(F)F)c2)cc1C#Cc1cnc2cccnn12 [ponatinib] | 0.73 | 101 | – | – | -1.79 | – | – | – | – | – | –
CCCS(=O)(=O)Nc1ccc(F)c(C(=O)c2c[nH]c3ncc(-c4ccc(Cl)cc4)cc23)c1F [vemurafenib] | 53 | 2 | -4.52 | 12 | 1.79 | 6 | – | – | – | – | –
